Patent US20240384268A1, “Oligonucleotides” (Hudson Institute of Medical Research, priority 2021, published 2024)
In the oligonucleotide strings, read from the 5' end, every base follows the letter of its sugar. An asterisk marks phosphorothioate; unmarked linkages are phosphodiester. Other units and linkages are bracketed, terminal groups are in braces. A string of capitals states the bases alone. d = 2'-deoxy (DNA); m = 2'-O-methyl

Target: T1, human TLR7 (Homo sapiens, UniProt Q9NYK1)
T1 construct: HA; host or cells: 293XL-hTLR7-HA (HEK293)
T1 sequence (Q9NYK1 27-1049): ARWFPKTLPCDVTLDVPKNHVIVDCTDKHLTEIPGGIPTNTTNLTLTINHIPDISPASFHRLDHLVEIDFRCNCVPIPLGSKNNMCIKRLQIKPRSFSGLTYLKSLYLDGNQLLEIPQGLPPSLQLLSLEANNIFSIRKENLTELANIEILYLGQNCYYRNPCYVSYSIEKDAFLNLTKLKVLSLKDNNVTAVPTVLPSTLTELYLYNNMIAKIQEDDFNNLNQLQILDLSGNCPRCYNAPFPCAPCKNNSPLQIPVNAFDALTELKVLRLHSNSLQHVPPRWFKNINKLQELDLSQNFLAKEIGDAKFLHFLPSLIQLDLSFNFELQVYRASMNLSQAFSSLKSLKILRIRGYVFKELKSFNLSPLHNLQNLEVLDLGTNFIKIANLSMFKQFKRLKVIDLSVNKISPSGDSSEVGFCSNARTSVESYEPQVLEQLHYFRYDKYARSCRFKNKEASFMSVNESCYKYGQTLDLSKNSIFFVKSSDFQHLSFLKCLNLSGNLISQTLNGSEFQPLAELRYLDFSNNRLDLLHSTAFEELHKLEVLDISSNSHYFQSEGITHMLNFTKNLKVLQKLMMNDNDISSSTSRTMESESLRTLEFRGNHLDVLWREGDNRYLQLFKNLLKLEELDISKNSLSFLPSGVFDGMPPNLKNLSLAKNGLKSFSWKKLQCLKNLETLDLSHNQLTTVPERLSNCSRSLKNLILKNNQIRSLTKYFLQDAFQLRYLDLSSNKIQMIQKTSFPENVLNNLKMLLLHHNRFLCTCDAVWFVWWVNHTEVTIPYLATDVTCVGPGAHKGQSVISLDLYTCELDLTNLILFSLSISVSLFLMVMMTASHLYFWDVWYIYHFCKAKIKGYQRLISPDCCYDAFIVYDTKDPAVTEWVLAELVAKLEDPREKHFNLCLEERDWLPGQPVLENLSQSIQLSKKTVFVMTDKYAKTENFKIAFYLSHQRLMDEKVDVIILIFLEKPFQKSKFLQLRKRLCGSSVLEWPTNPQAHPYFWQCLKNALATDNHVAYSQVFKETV
Assay: HEK-TLR7 NF-κB-luciferase reporter, R848 stimulation
Assay type: cell-based
Details: for TLR7 400 nM: 3mer 2'OMe ASO at 400 nM; for TLR7 400 nM / TLR7 2 uM / IC50 / inhibition of TLR7 by 3-mer 2′OMe oligos (in words) / inhibition of R848 sensing by TLR7, short pre-treatment (in words): HEK-TLR7; for TLR7 400 nM / TLR7 2 uM: value relative to Ligand only = 1.000, NT = 0.000; for TLR7 2 uM: 3mer 2'OMe ASO at 2 uM; for TLR7 100 nM (averaged NF-κB-Luciferase level relative to R848 condition): ASO 100 nM; for TLR7 100 nM (averaged NF-κB-Luciferase level relative to R848 condition) / TLR7 500 nM (averaged NF-κB-Luciferase level relative to R848 condition): relative to R848 only, given as fraction; for TLR7 500 nM (averaged NF-κB-Luciferase level relative to R848 condition): ASO 500 nM; for IC50: oligo ~30-50 min before 1 μg/ml R848 overnight, read-out: IC50 (R848 sensing by TLR7); for inhibition of TLR7 by 3-mer 2′OMe oligos (in words): 400 nM and 2 μM 3-mer, ~30 min, R848 1 μg/ml; for inhibition of R848 sensing by TLR7, short pre-treatment (in words): 100-500 nM oligo 20-50 min before R848 1 μg/ml

Substance | TLR7 400 nM | TLR7 2 uM | further results
GGU (mG*mG*mU) | 0.938 | 0.847 | 
GTATCGAAAGAGTCTG (antisense; LNA-modified, pattern not given here) [EGFR-3908 LNA KL] |  |  | TLR7 100 nM (averaged NF-κB-Luciferase level relative to R848 condition): 0.562; TLR7 500 nM (averaged NF-κB-Luciferase level relative to R848 condition): 0.113
GTCCCCTGTTGACTGG (antisense; LNA-modified, pattern not given here) [HPRT LNA-489 KL] |  |  | TLR7 100 nM (averaged NF-κB-Luciferase level relative to R848 condition): 0.557; TLR7 500 nM (averaged NF-κB-Luciferase level relative to R848 condition): 0.123
GTCTTGGCTTCGTGGA (antisense; LNA-modified, pattern not given here) [MB21D1-522 LNA V1] |  |  | TLR7 100 nM (averaged NF-κB-Luciferase level relative to R848 condition): 0.652; TLR7 500 nM (averaged NF-κB-Luciferase level relative to R848 condition): 0.056
GTGTCTGGAAGCTTCC (antisense; LNA-modified, pattern not given here) [CTNN2B-809 LNA V1] |  |  | TLR7 100 nM (averaged NF-κB-Luciferase level relative to R848 condition): 0.355; TLR7 500 nM (averaged NF-κB-Luciferase level relative to R848 condition): 0.067
GTTCAGTCCTGTCCAT (antisense; LNA-modified, pattern not given here) [HPRT LNA-292 V1] |  |  | TLR7 100 nM (averaged NF-κB-Luciferase level relative to R848 condition): 0.456; TLR7 500 nM (averaged NF-κB-Luciferase level relative to R848 condition): 0.114
T*T*A* G*G*G* T*T*A* G*G*G* T*T*A* G*G*G* T*T*A* G*G*G [A151, reference compound] |  |  | IC50: 132 nM
TCCAACACTTCGTGGG (antisense; LNA-modified, pattern not given here) [HPRT LNA-669 V1] |  |  | TLR7 100 nM (averaged NF-κB-Luciferase level relative to R848 condition): 0.318; TLR7 500 nM (averaged NF-κB-Luciferase level relative to R848 condition): 0.249
TCGTAGTTGCTTCCTA (antisense; LNA-modified, pattern not given here) [MB21D1-1181 LNA KL] |  |  | TLR7 100 nM (averaged NF-κB-Luciferase level relative to R848 condition): 0.380; TLR7 500 nM (averaged NF-κB-Luciferase level relative to R848 condition): 0.198
TGATGGCCTCCCATCT (antisense; LNA-modified, pattern not given here) [HPRT LNA-332 V1] |  |  | TLR7 100 nM (averaged NF-κB-Luciferase level relative to R848 condition): 0.657; TLR7 500 nM (averaged NF-κB-Luciferase level relative to R848 condition): 0.153
TGCACACTTCGTACCC (antisense; LNA-modified, pattern not given here) [CAMSAP1-4916 LNA V1] |  |  | TLR7 100 nM (averaged NF-κB-Luciferase level relative to R848 condition): 0.806; TLR7 500 nM (averaged NF-κB-Luciferase level relative to R848 condition): 0.299
TGGCCTCCCATCTCCT (antisense; LNA-modified, pattern not given here) [HPRT LNA-329 V1] |  |  | TLR7 100 nM (averaged NF-κB-Luciferase level relative to R848 condition): 0.877; TLR7 500 nM (averaged NF-κB-Luciferase level relative to R848 condition): 0.217
TGTGATGGCCTCCCAT (antisense; LNA-modified, pattern not given here) [HPRT LNA-334 V1] |  |  | TLR7 100 nM (averaged NF-κB-Luciferase level relative to R848 condition): 0.315; TLR7 500 nM (averaged NF-κB-Luciferase level relative to R848 condition): 0.090
TTCGTGGGGTCCTTTT (antisense; LNA-modified, pattern not given here) [HPRT LNA-661 V1] |  |  | TLR7 100 nM (averaged NF-κB-Luciferase level relative to R848 condition): 0.487; TLR7 500 nM (averaged NF-κB-Luciferase level relative to R848 condition): 0.178
TTTTGGCTGGGATCAA (antisense; LNA-modified, pattern not given here) [CAMSAP1-4697 LNA KL] |  |  | TLR7 100 nM (averaged NF-κB-Luciferase level relative to R848 condition): 0.564; TLR7 500 nM (averaged NF-κB-Luciferase level relative to R848 condition): 0.305
UAA (mU*mA*mA) | 1.126 | 1.029 | 
UAC (mU*mA*mC) | 1.161 | 1.003 | 
UAG (mU*mA*mG) | 1.158 | 0.918 | 
UAU (mU*mA*mU) | 1.086 | 0.935 | 
UCC (mU*mC*mC) | 1.166 | 0.958 | 
UCU (mU*mC*mU) | 1.196 | 0.956 | 
UGC (mU*mG*mC) | 1.057 | 0.782 | 
UGU (mU*mG*mU) | 1.108 | 0.984 | 
UUA (mU*mU*mA) | 0.997 | 1.042 | 

Substance | TLR7 400 nM | TLR7 2 uM | further results
UUC (mU*mU*mC) | 0.536 | 0.642 | 
UUG (listed as RNA, chemistry not fully specified) | 0.945 | 1.074 | 
UUU (mU*mU*mU) | 0.861 | 1.084 | 
dA*dA*dA (DNA AAA; listed as DNA, chemistry not fully specified) | 1.352 | 0.867 | 
dA*dA*dC (DNA AAC; listed as DNA, chemistry not fully specified) | 1.019 | 0.770 | 
dA*dA*dG (DNA AAG; listed as DNA, chemistry not fully specified) | 1.247 | 0.876 | 
dA*dC*dA (DNA ACA; listed as RNA, chemistry not fully specified) | 1.234 | 0.831 | 
dA*dG*dA (DNA AGA; listed as DNA, chemistry not fully specified) | 1.219 | 0.795 | 
dA*dG*dC (DNA AGC; listed as DNA, chemistry not fully specified) | 1.401 | 0.726 | 
dC*dA*dA (CAA; listed as DNA, chemistry not fully specified) | 1.175 | 0.787 | 
dC*dA*dC (CAC; listed as RNA, chemistry not fully specified) | 1.330 | 0.932 | 
dC*dC*dA (CCA; listed as DNA, chemistry not fully specified) | 1.270 | 0.780 | 
dC*dC*dC (CCC; listed as DNA, chemistry not fully specified) | 1.196 | 0.993 | 
dC*dC*dG (CCG; listed as DNA, chemistry not fully specified) | 1.227 | 1.006 | 
dC*dG*dA (CGA; listed as DNA, chemistry not fully specified) | 1.112 | 0.907 | 
dG*dC*dC [GCC] | 1.360 | 0.645 | 
dG*dC*dG [GCG] | 1.185 | 0.627 | 
mAmUmC (mA*mU*mC) [AUC, 3-mer 2′OMe PS oligo] | 0.950 | 0.430 | inhibition of TLR7 by 3-mer 2′OMe oligos (in words): inhibiting TLR7
mC*mG*mU*T*T*C*C*C*C*C*C*C*C*C*C*C*C*C*C*C (CGUTTCCCCCCCCCCCCCCC; antisense; sugars from the 5' end m3 d17, all phosphorothioate, methylation of C not given here) [[C2]Mut1-v3-dC] |  |  | inhibition of R848 sensing by TLR7, short pre-treatment (in words): significantly altered TLR7 inhibition
mCmUmU (antisense mC*mU*mU) [660-3] | 1.277 | 0.913 | 
mG*mC*mG*mG*mU*A*T*C*C*A*T*G*T*C*C*mC*mA*mG*mG*mC (mG*mC*mG*mG*mU*dA*dT*dC*dC*dA*dT*dG*dT*dC*dC*mC*mA*mG*mG*mC; antisense) [C2-Mut1] |  |  | IC50: 44 nM
mG*mG*mU*A*T*C*C*C*C*C*C*C*C*C*C*C*C*C*C*C (GGUATCCCCCCCCCCCCCCC; antisense; sugars from the 5' end m3 d17, all phosphorothioate, methylation of C not given here) [[C2]Mut1-dC] |  |  | inhibition of R848 sensing by TLR7, short pre-treatment (in words): significantly higher TLR7 inhibition than dC20
mGmAmU (mG*mA*mU) [GAU, 3-mer 2′OMe PS oligo] | 1.406 | 0.580 | inhibition of TLR7 by 3-mer 2′OMe oligos (in words): selectively inhibited TLR7 sensing; IC50: 300 nM
mGmUmA (GUA; all 2'-O-methyl, backbone not given here; further chemistry not fully specified) [shortMut1-3b] | 0.702 | 0.239 | inhibition of TLR7 by 3-mer 2′OMe oligos (in words): inhibiting TLR7
